PMC9775433 (Cancers, 2022)
Where “and” joins values, the source holds several entries; their conditions need not be identical. Equal values may be shown once.

Assays:
Type in all cases: in vivo, human
Conditions in all cases: individual patient
[1] = Plasma pharmacokinetics of high-dose intermittent sunitinib (LC-MS-MS, NONMEM)
Procedure: Study pharmacokinetic assessment in plasma: Ethylenediaminetetraacetic acid (EDTA) blood was collected pretreatment and subsequently at multiple time points in all patients (0, 2, 4, 6, 8, 10, and 24 h post-dose on day 1 for both time schedules and thereafter at days 3, 8, 10, 15, 17, and 22 for the once weekly schedule and at days 3, 15, 17, and 29 for the once every 2 weeks schedule). All samples were centrifuged within 1 h after collection at 2000 g for 10 min (at 4 degrees Celsius (°C)), plasma was separated and stored at −80 °C until the day of analysis.
Since there is no evidence for the exact relationship between plasma and tumor concentrations, we chose to use the concentration–time data calculated by NONMEM for Cmax, the average concentration over time (Caverage) and the trough concentrations just before the next dose was administered (Ctrough) based on rich PK-data of each individual patient. […] Inter-occasion variability in bioavailability and absorption duration were allowed in the model. The control stream of the final model and the goodness-of-fit plots are supplied in the Supplementary Material (Supplementary Data S3). The developed model was used to derive the individual predictions for the Cmax, Caverage, and Ctrough. SUM concentrations were calculated.
(§1) Supplementary data S2 – Methods (Details)
(§2) samples; using a validated liquid chromatography–tandem mass spectrometry (LC-MS-MS).
(§3) The system consisted of an Acquity H‐Class UPLC system, coupled to a Xevo TQ‐S micro
(§4) tandem mass spectrometer. […]

[2] = Tumor drug concentration in tumor needle biopsy at day 17 (LC-MS-MS)
Procedure: (§5) All tissue samples were immediately snap frozen (within 1 min) in liquid nitrogen and cryopreserved at −80 °C until the day of analysis.
(§6) Tissue biopsies were weighed accurately before analysis. Tissue homogenate was prepared by using a mechanical homogenizer. The tumor tissue was homogenized with the precellys lysing kit (bertin instruments®) in the Roche MagNA lyzer®. […] Tissue homogenate samples were directly analyzed.
as §1, §2, §3, §4

[3] = Skin drug concentration in skin biopsy at day 17 (LC-MS-MS)
Procedure: as §5, §6, §1, §2, §3, §4

SMILES: CCNCCNC(=O)c1c(C)[nH]c(/C=C2\C(=O)Nc3ccc(F)cc32)c1C [N-desethyl sunitinib]
- Cmax plasma - N-desethyl Sunitinib concentration ([1]; sunitinib 200 mg O1W): 68 ng/mL and 40 ng/mL and 58 ng/mL
- Cmax plasma - N-desethyl Sunitinib concentration ([1]; sunitinib 300 mg O1W): 29 ng/mL and 34 ng/mL and 28 ng/mL and 22 ng/mL and 51 ng/mL and 15 ng/mL and 94 ng/mL and 32 ng/mL and 21 ng/mL and 31 ng/mL and 33 ng/mL and 23 ng/mL and 27 ng/mL and 43 ng/mL and 210 ng/mL and 63 ng/mL and 14 ng/mL
- Cmax plasma - N-desethyl Sunitinib concentration ([1]; sunitinib 300 mg O2W): 29 ng/mL and 7.49 ng/mL and 27 ng/mL
- Cmax plasma - N-desethyl Sunitinib concentration ([1]; sunitinib 400 mg O1W): 15 ng/mL and 26 ng/mL and 9.48 ng/mL and 22 ng/mL and 28 ng/mL and 25 ng/mL and 6.66 ng/mL and 44 ng/mL and 154 ng/mL and 57 ng/mL
- Cmax plasma - N-desethyl Sunitinib concentration ([1]; sunitinib 400 mg O2W): 33 ng/mL and 31 ng/mL and 28 ng/mL and 34 ng/mL
- Cmax plasma - N-desethyl Sunitinib concentration ([1]; sunitinib 500 mg O2W): 32 ng/mL and 29 ng/mL and 51 ng/mL
- Cmax plasma - N-desethyl Sunitinib concentration ([1]; sunitinib 600 mg O2W): 45 ng/mL and 41 ng/mL
- Cmax plasma - N-desethyl Sunitinib concentration ([1]; sunitinib 700 mg O2W): 26 ng/mL and 52 ng/mL and 24 ng/mL and 65 ng/mL and 55 ng/mL and 51 ng/mL and 21 ng/mL and 30 ng/mL and 40 ng/mL and 59 ng/mL and 35 ng/mL and 48 ng/mL and 36 ng/mL and 34 ng/mL and 23 ng/mL and 84 ng/mL and 164 ng/mL and 150 ng/mL and 85 ng/mL and 68 ng/mL and 54 ng/mL and 76 ng/mL and 125 ng/mL and 128 ng/mL and 200 ng/mL and 57 ng/mL
- Cmax plasma - N-desethyl Sunitinib concentration ([1]; sunitinib 800 mg O2W): 55 ng/mL and 84 ng/mL and 13 ng/mL and 14 ng/mL and 29 ng/mL
- Tumor - N-desethyl Sunitinib concentration ([2]; sunitinib 300 mg O1W): 589 µg/L and 12025 µg/L and 812 µg/L and 1101 µg/L and 1077 µg/L and 2934 µg/L and 6513 µg/L and 22945 µg/L and 578 µg/L and 10356 µg/L and 342 µg/L and 767 µg/L
- Tumor - N-desethyl Sunitinib concentration ([2]; sunitinib 400 mg O2W): 400 µg/L
- Tumor - N-desethyl Sunitinib concentration ([2]; sunitinib 700 mg O2W): 13436 µg/L and 2500 µg/L and 19730 µg/L and 2387 µg/L and 4534 µg/L and 1675 µg/L and 17843 µg/L and 555 µg/L
- Tumor - N-desethyl Sunitinib concentration ([2]; sunitinib 800 mg O2W): 330 µg/L
- Skin - N-desethyl Sunitinib concentration ([3]; sunitinib 300 mg O1W): 1288 µg/L and 1388 µg/L and 267 µg/L and 1355 µg/L and 529 µg/L and 224 µg/L and 648 µg/L and 865 µg/L and 1498 µg/L and 621 µg/L and 1842 µg/L and 2193 µg/L and 488 µg/L
- Skin - N-desethyl Sunitinib concentration ([3]; sunitinib 300 mg O2W): 124 µg/L and 218 µg/L
- Skin - N-desethyl Sunitinib concentration ([3]; sunitinib 400 mg O1W): 406 µg/L
- Skin - N-desethyl Sunitinib concentration ([3]; sunitinib 700 mg O2W): 2743 µg/L and 221 µg/L and 168 µg/L and 987 µg/L and 5179 µg/L and 572 µg/L and 425 µg/L and 429 µg/L and 380 µg/L and 326 µg/L and 5652 µg/L and 1279 µg/L and 460 µg/L and 1021 µg/L and 1060 µg/L and 896 µg/L
- Skin - N-desethyl Sunitinib concentration ([3]; sunitinib 800 mg O2W): 194 µg/L
